Laboratory results published in patent US7241795B2, “Synthesis and antimicrobial activity of novel dicationic “reversed amidines”” (The University of North Carolina at Chapel Hill, priority 2000, dated 2007).
≈ marks a conversion by molar mass, not a printed value. Counter-ions that a name gives are not always drawn. Values belong to the compound of their own block, whether it stands above or below them.

Columns and labels:
poly dA•dT = assay: DNA thermal melting (ΔTm); assay type: binding
d(CGCGAATTCGCG)2 = assay: DNA thermal melting (ΔTm); assay type: binding; conditions: oligo = d(CGCGAATTCGCG)2
Candida albicans = assay: Antifungal broth macrodilution susceptibility testing (MIC/MFC), yeast; assay type: cell-based; conditions: for MFC / MIC: Candida albicans; for MFC: read-out: C. albicans MFC; for MIC: read-out: C. albicans MIC
Aspergillus fumigatus = assay: Antifungal broth macrodilution susceptibility testing (MIC/MFC), mold; assay type: cell-based; conditions: Aspergillus fumigatus, strain 168.95; for MFC: read-out: Aspergillus fumigatus MFC; for MIC: read-out: Aspergillus fumigatus MIC
M. tuberculosis H37Rv = assay: Microplate Alamar Blue Assay (MABA) in BACTEC 12B medium; assay type: cell-based, Mycobacterium tuberculosis; conditions: for MIC / inhibition at 6.25 µg/mL: Mycobacterium tuberculosis, H37RV; for MIC: read-out: MTb MIC; for inhibition at 6.25 µg/mL: % Inhibition at 6.25 μg/ml, read-out: MTb % Inh
[1] = reference strain C. albicans A39
[2] = lowest concentration effecting ≧90% reduction of fluorescence

melting point: 221 to 223 °C
Compound: c1ccc(N=Nc2ccc(-c3ccc(-c4ccc(N=Nc5ccccn5)cc4)o3)cc2)nc1 (as salt: hydrochloride) (hydrate or solvate) [Compound 6a, 2,5-Bis[4-(2-pyridylimino)aminophenyl]furan]

melting point: 168 to 169 °C
Compound: Cc1cc(N=Nc2ccc3ccccc3n2)ccc1-c1ccc(-c2ccc(N=Nc3ccc4ccccc4n3)cc2C)o1 (as salt: hydrochloride) [Compound 6i, 2,5-Bis[2-methyl-4-(2-quinolylimino)aminophenyl]furan]

Compound: Cc1ccc(N=Nc2ccc(-c3ccc(-c4ccc(N=Nc5ccc(C)cn5)cc4C)o3)c(C)c2)nc1 (as salt: hydrochloride) [Compound 6j, 2,5-Bis[2-methyl-4-(5-methyl-2-pyridylimino)aminophenyl]furan]
melting point: 156 to 158 °C

Compound: COc1cc(N=Nc2ccccn2)ccc1-c1ccc(-c2ccc(N=Nc3ccccn3)cc2OC)o1 (as salt: hydrochloride) [Compound 6k, 2,5-Bis[2-methoxy-4-(2-pyridylimino)aminophenyl]furan]
melting point: 196 to 197 °C

melting point: 189 to 190 °C
Compound: Clc1cc(N=Nc2ccccn2)ccc1-c1ccc(-c2ccc(N=Nc3ccccn3)cc2Cl)o1 (as salt: hydrochloride) [Compound 6l, 2,5-Bis[2-chloro-4-(2-pyridylimino)aminophenyl]furan]

Compound: N=C(Nc1ccc(-c2ccc(-c3ccc(NC(=N)c4ccccc4)cc3)s2)cc1)c1ccccc1 (hydrate or solvate) [DB 653, 2,5-Bis[4-(benzimidoyl)aminophenyl]thiophene]
melting point: 284 to 286 °C (dec.)

Compound: N=C(N)c1ccc(-c2ccc(-c3ccc(C(=N)N)cc3)o2)cc1 [2,5-bis [4-amidinophenyl]furan, reference compound]
DNA Affinities ΔTm (AT) (poly dA•dT): 25
DNA Affinities ΔTm (oligo) (d(CGCGAATTCGCG)2): 11.7

Compound: Cl.Cl.N=C(N)Nc1ccc(-c2ccc(-c3ccc(NC(=N)N)cc3)o2)cc1 [Compound 5a, 2,5-Bis(4-guanidinophenyl)furan dihydrochloride]
activity against C. albicans, in words (Candida albicans): fungicidal
MFC (Candida albicans; [1]): 25 mg/L
DNA Affinities ΔTm (AT) (poly dA•dT): 21.6
MFC (Aspergillus fumigatus): > 100 mg/L
MIC (Aspergillus fumigatus): 100 mg/L
DNA Affinities ΔTm (oligo) (d(CGCGAATTCGCG)2): 10.8

Compound: Cc1cc(NC(=N)N)ccc1-c1ccc(-c2ccc(NC(=N)N)cc2C)o1.Cl.Cl [Compound 5b, 2,5-Bis(4-guanidino-2-methylphenyl)furan dihydrochloride]
activity against C. albicans, in words (Candida albicans): fungicidal
MFC (Candida albicans; [1]): 2.08 mg/L
MIC (Candida albicans; [1]): 1 to 3 mg/L
DNA Affinities ΔTm (AT) (poly dA•dT): 17.8
MFC (Aspergillus fumigatus): 33.4 mg/L
MIC (Aspergillus fumigatus): 33.4 mg/L
melting point: 265 to 271 °C (dec.)
MIC (M. tuberculosis H37Rv; [2]): 1 to 3 mg/L
DNA Affinities ΔTm (oligo) (d(CGCGAATTCGCG)2): 6.9

Compound: COc1cc(NC(=N)N)ccc1-c1ccc(-c2ccc(NC(=N)N)cc2OC)o1.Cl.Cl [Compound 5c, 2,5-Bis(4-guanidino-2-methoxyphenyl)furan dihydrochloride]
MFC (Candida albicans; [1]): 100 mg/L
MIC (Candida albicans; [1]): 10 mg/L
DNA Affinities ΔTm (AT) (poly dA•dT): 15.2
MFC (Aspergillus fumigatus): 100 mg/L
MIC (Aspergillus fumigatus): 100 mg/L
MIC (M. tuberculosis H37Rv; [2]): 16 mg/L
DNA Affinities ΔTm (oligo) (d(CGCGAATTCGCG)2): 2.8

Compound: Cl.Cl.N=C(N)Nc1ccc(-c2ccc(-c3ccc(NC(=N)N)cc3Cl)o2)c(Cl)c1 [Compound 5d, 2,5-Bis(2-chloro-4-guanidinophenyl)furan dihydrochloride]
MFC (Candida albicans; [1]): 100 mg/L
MIC (Candida albicans; [1]): 10 mg/L
DNA Affinities ΔTm (AT) (poly dA•dT): 26.1
MFC (Aspergillus fumigatus): 100 mg/L
MIC (Aspergillus fumigatus): 100 mg/L
melting point: 300 to 304 °C (dec.)
MIC (M. tuberculosis H37Rv; [2]): 4 mg/L
DNA Affinities ΔTm (oligo) (d(CGCGAATTCGCG)2): 4.7

Compound: Cl.Cl.N=C(N)Nc1ccc(-c2ccc(-c3ccc(NC(=N)N)cc3C(F)(F)F)o2)c(C(F)(F)F)c1 [Compound 5e, 2,5-Bis (4-guanidino-2-trifluoromethylphenyl) furan dihydrochloride]
MFC (Candida albicans; [1]): 10 mg/L
MIC (Candida albicans; [1]): 10 mg/L
DNA Affinities ΔTm (AT) (poly dA•dT): 5.9
MFC (Aspergillus fumigatus): 100 mg/L
MIC (Aspergillus fumigatus): 100 mg/L
MIC (M. tuberculosis H37Rv; [2]): 8 mg/L

Compound: Cc1cc(NC(=N)N)cc(C)c1-c1ccc(-c2c(C)cc(NC(=N)N)cc2C)o1.Cl.Cl [Compound 5f, 2,5-Bis(4-guanidino-2,6-dimethylphenyl)furan dihydrochloride]
DNA Affinities ΔTm (AT) (poly dA•dT): 2.7
DNA Affinities ΔTm (oligo) (d(CGCGAATTCGCG)2): 1.4

Compound: Cl.Cl.N=C(Nc1ccc(-c2ccc(-c3ccc(NC(=N)c4ccccc4)cc3)o2)cc1)c1ccccc1 [Compound 6b, 2,5-Bis[4-(benzimidoylamino)phenyl]furan Dihydrochloride]
MFC (Candida albicans; [1]): 50 mg/L
MIC (Candida albicans; [1]): 25 mg/L
DNA Affinities ΔTm (AT) (poly dA•dT): 28.6
DNA Affinities ΔTm (oligo) (d(CGCGAATTCGCG)2): 15.0

Compound: Cc1ccc(C(=N)Nc2ccc(-c3ccc(-c4ccc(NC(=N)c5ccc(C)cc5)cc4)o3)cc2)cc1.Cl.Cl [Compound 6c, 2,5-Bis [4-[(4-methylbenzimidoyl)amino]phenyl]furan Dihydrochloride]
MIC (Candida albicans; [1]): > 100 mg/L
DNA Affinities ΔTm (AT) (poly dA•dT): >28
melting point: 348 to 350.5 °C
MIC (M. tuberculosis H37Rv; [2]): ≤ 6.25 mg/L
DNA Affinities ΔTm (oligo) (d(CGCGAATTCGCG)2): 15.4

Compound: c1cc(-c2ccc(-c3ccc(N=NC4CCCCC4)cc3)o2)ccc1N=NC1CCCCC1 [Compound 6d, 2,5-Bis[4-(cyclohexylimino)aminophenyl]furan]
MIC (Candida albicans; [1]): > 100 mg/L
DNA Affinities ΔTm (AT) (poly dA•dT): 26.7
MFC (Aspergillus fumigatus): > 100 mg/L
MIC (Aspergillus fumigatus): 100 mg/L (≈ 227 µM)
activity against M. tuberculosis, in words (M. tuberculosis H37Rv): some activity
MIC (M. tuberculosis H37Rv; [2]): ≤ 6.25 mg/L
DNA Affinities ΔTm (oligo) (d(CGCGAATTCGCG)2): 12.8

Compound: Br.Br.CC(=N)Nc1ccc(-c2ccc(-c3ccc(NC(C)=N)cc3)o2)cc1 [Compound 6e, 2,5-Bis[4-(acetimidoyl)aminophenyl]furan Dihydrobromide]
MIC (Candida albicans; [1]): > 100 mg/L
DNA Affinities ΔTm (AT) (poly dA•dT): 15.9
MFC (Aspergillus fumigatus): > 100 mg/L
MIC (Aspergillus fumigatus): 100 mg/L
melting point: 307 to 309.5 °C (dec.)
inhibition at 6.25 µg/mL (M. tuberculosis H37Rv): 0%
DNA Affinities ΔTm (oligo) (d(CGCGAATTCGCG)2): 6.0

Compound: Br.Br.CC(=N)Nc1ccc(-c2ccc(-c3ccc(NC(C)=N)cc3C)o2)c(C)c1 [Compound 6f, 2,5-Bis [4-(acetimidoyl)amino-2-methylphenyl]furan Dihydrobromide]
MIC (Candida albicans; [1]): > 100 mg/L
DNA Affinities ΔTm (AT) (poly dA•dT): 14.5
MIC (Aspergillus fumigatus): > 100 mg/L
melting point: 282.5 to 284 °C (dec.)
inhibition at 6.25 µg/mL (M. tuberculosis H37Rv): 18%
DNA Affinities ΔTm (oligo) (d(CGCGAATTCGCG)2): 2.4

Compound: Cc1cc(NC(=N)c2ccccc2)ccc1-c1ccc(-c2ccc(NC(=N)c3ccccc3)cc2C)o1 [Compound 6g, 2,5-Bis[4-(benzimidoyl)amino-2-methylphenyl]furan]
MFC (Candida albicans; [1]): 6.25 mg/L (≈ 12.9 µM)
MIC (Candida albicans; [1]): 3.12 mg/L (≈ 6.44 µM)
DNA Affinities ΔTm (AT) (poly dA•dT): 24.9
DNA Affinities ΔTm (oligo) (d(CGCGAATTCGCG)2): 7.8

Compound: Cc1cc(N=Nc2ccccn2)cc(C)c1-c1ccc(-c2c(C)cc(N=Nc3ccccn3)cc2C)o1 [Compound 6m, 2,5-Bis[2,6-dimethyl-4-(2-pyridylimino)aminophenyl]furan]
MFC (Candida albicans; [1]): > 100 mg/L
MIC (Candida albicans; [1]): 10 mg/L (≈ 20.6 µM)
DNA Affinities ΔTm (AT) (poly dA•dT): 5.7
MFC (Aspergillus fumigatus): > 100 mg/L
MIC (Aspergillus fumigatus): 10 mg/L (≈ 20.6 µM)
DNA Affinities ΔTm (oligo) (d(CGCGAATTCGCG)2): 1.2

Compound: N=C(Nc1ccc(-c2ccc(-c3ccc(NC(=N)c4ccccc4)cc3)s2)cc1)c1ccccc1 [DB 653, 2,5-Bis[4-(benzimidoyl)aminophenyl]thiophene]
MIC (Candida albicans; [1]): > 100 mg/L
DNA Affinities ΔTm (AT) (poly dA•dT): 20.2
MIC (Aspergillus fumigatus): > 100 mg/L
DNA Affinities ΔTm (oligo) (d(CGCGAATTCGCG)2): 12.8

Compound: N=C(N)Nc1ccc(-c2ccc(-c3ccc(NC(=N)N)cc3)s2)cc1 [DB 686]
C. albicans MFC (Candida albicans; [1]): 4.17 mg/L
C. albicans MIC (Candida albicans; [1]): 4.17 mg/L
MTb MIC (M. tuberculosis H37Rv; H37Rv, lowest concentration effecting ≧90% reduction of fluorescence): <1 mg/L

Compound: OC(Cn1cncn1)(Cn1cncn1)c1ccc(F)cc1F [Fluconazole, reference compound]
activity against C. albicans, in words (Candida albicans): fungistatic
